From patent publication US20210154156A1, “APPLICATION OF COMPOUND IN INHIBITING AB ACCUMULATION AND TREATING ALZHEIMER'S DISEASE” (NORTHEAST NORMAL UNIVERSITY, priority 2018, published 2021)
Where a name gives a salt, the structure may show the parent alone.

Key:
[1] = test system: APP/PS1 double transgenic mice; assay: Morris water maze in APP/PS1 transgenic mice; type: in vivo; conditions: intragastric administration for 2 months
Source text: (§1) The wild-type (WT) and APP/PS1 double transgenic mice used in the experiment of the present invention were purchased from the Model Animal Research Institute of Nanjing University, and the mouse genes were identified in strict accordance with the PCR method provided.
In the Morris water maze experiment, the mouse water maze training was two days (data not recorded). The mice were placed into the pool from 4 entry points (quadrants) facing the pool wall. The platform was hidden 1 cm underwater, and the water temperature was kept at 23° C. , and the training lasted for 2 minutes. […] The experiment phase started from the third day, and the experiment was continued for 6 days. Each mouse was tested once a day. During the experiment, the mice were respectively placed into the pool from 4 entry points (quadrants) facing the pool wall.
The time was recorded from the mice entering the water to the mice finding and staying in the underwater hidden platform. That was called as the incubation period. On the eighth day, the platform was removed, and each mouse was launched from the farthest position of the original platform and swam freely for 2 minutes. The swimming time of the animal in the target quadrant (the area where the platform located), the number of times of traversing the platform, the path and other main parameters were tracked and recorded by the miniature camera and analyzed.

Aβ protein monomer = target: T1, Aβ protein monomer (Homo sapiens, UniProt P05067); assay: Circular dichroism spectrum experiment (CD) of Aβ β-sheet formation; type: biochemical; conditions: Aβ 20 uM; drug 10, 20, 40 uM; 12 hours 37° C.
T1 construct: purchased Nanjing Elutrian Biological Co. Ltd
T1 sequence (P05067 672-713 limits assumed): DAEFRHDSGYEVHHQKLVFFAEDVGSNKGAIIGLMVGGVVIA
Procedure: The A beta monomer was mixed with a drug, the final concentration of Aβ was 20 uM, the final concentrations of the drug were 0 uM, 10 uM, 20 uM and 40 uM respectively, and after 12 hours incubation at 37° C., a J-810 spectrometer (Jayasco, Japan) was used for detection. The wavelength range was 190-250 nm, the resolution was 0.5 nm, the spectrum width was 2 nm, the scanning speed was 100 nm/min, the response time was 1 s, and the measuring temperature was normal temperature. The solution was added to a quartz cuvette with an optical path of 0.1 mm for measurement, and each experiment was repeated three times. Subtracting the buffer curve from each scan curve as the experimental result, each experiment was repeated three times, and the average value was given.

APP/PS1 transgenic mice = assay: Thioflavin S and Congo red staining of brain Aβ plaques in APP/PS1 transgenic mice; type: in vivo
Source text: as §1
10-month-old AD mice were anesthetized with 0.4% pentobarbital sodium. Blood was taken by perfusing the atria. 4% paraformaldehyde was perfused for whole body fixation. The brain tissue was taken and weighed. The hemibrains were put into 4% paraformaldehyde solution and used for histopathology. The other half was stored in a cryotube at −80° C. for biochemical analysis. The brain tissues fixed with 4% paraformaldehyde were embedded in wax and sliced. The plaques in the cerebral cortex and hippocampus were stained with Thioflavin S and Congo Red. Pathological images were obtained by digital microscope and fluorescence microscope and quantitatively analyzed.

Aβ42 monomer = target: T2, Aβ42 monomer (Homo sapiens, UniProt P05067); assay: Transmission electron microscopy (TEM) of Aβ42 fiber formation; type: biochemical; conditions: 37° C. 24 hours; concentration-dependent
T2 construct: purchased Nanjing Elutrian Biological Co. Ltd
T2 sequence (P05067 672-713 limits assumed): as above
Procedure: The preparation was the same as that of Example 1. Then, the Aβ protein sample was incubated at 37° C. for 24 hours, dropped on the surface of a 300 mesh carbon film copper mesh, dried in air, dyed with 2% (w/v) phosphotungstate sodium salt negative for 30 seconds, standing at room temperature for about 4 hours, then the JEM-100CXII transmission electron microscope system (JEOL Inc., Tokyo, Japan) was used to detect and take pictures with an acceleration voltage of 80 kV.

Aβ42 monomers = target: T3, Aβ42 monomers (Homo sapiens, UniProt P05067); assay: Thioflavin T test (ThT) of Aβ42 monomer aggregation; type: biochemical; conditions: Aβ 20 uM; drug 10, 20, 40 uM; 37° C. 24 hours; concentration-dependent
T3 construct: purchased Nanjing Elutrian Biological Co. Ltd
T3 sequence (P05067 672-713 limits assumed): as above
Procedure: The protein A beta protein was provided by Nanjing Elutrian Biological Co. Ltd. and the purity was greater than 95%. The compound macroflavin was provided by Shanghai Yuan-Ye biological company. The Aβ monomer powder was stored at −80° C., standing for 30 minutes at room temperature for the first time, then diluted with hexafluoroisopropanol (HFIP) to 1.0 mg/mL. It stood for at least 2 hours, carrying out ultrasonic 30 minutes to destroy the existing multi-polymer structure, standing and drying at low temperature, was immediately stored at −20° C. Thioflavin T was purchased from Sigma (cargo number T3516-5 G). 0.032 g of THT powder was weighed and dissolved in 20 mL of 20 mM Tris-HCl (pH 7.4) solution to obtain a 5 mM THT mother liquor, and was diluted to 5 uM when used.

[2] = test system: APP/PS1 double transgenic mice; assay: Y maze in APP/PS1 transgenic mice; type: in vivo; conditions: after two months of treatment
Source text: as §1
In the Y maze experiment, three black striped long arms were marked A, B, and C with the same appearance were combined in a Y shape. The mouse was put in the A arm, and recorded as an error if it turned back from the other long arm during free movement, such as ABA, BCB, etc., recalculated with this arm as the starting point, such as ABACBABCBA. The experiment time for each mouse lasted 8 minutes. When the experiment was completed, the Y labyrinth was cleaned and disinfected with alcohol, and the experiment was performed on the next mouse after drying.

[3] = test system: human neuroma blasts SH-SY5Y; assay: MTT test of Aβ42 oligomer-mediated neurotoxicity in SH-SY5Y; type: cell-based
Procedure: The cells used in the Aβ42 oligomer-mediated neurotoxicity damage experiment were human neuroma blasts SH-SY5Y, incubated in DME medium of 10% FBS at 37° C. The control group without Aβ protein and the experimental group with added drug were cultured overnight at 37° C. with slow shaking, and transferred to a 96-well cell culture plate containing SH-SY5Y. The final concentration of Aβ protein was 1 uM and the final concentration of drug was 0.25 uM. 0.5 uM, 1 uM and 2 uM, three parallel holes for each concentration, action time 3 hours, MTT method 490 nm wavelength tested 5 times to analyze cell proliferation.

formed Aβ fibers = target: T4, formed Aβ fibers (Homo sapiens, UniProt P05067); assay: Depolymerization of the formed Aβ fibrous structure (ThT and TEM); type: biochemical
T4 construct: purchased Nanjing Elutrian Biological Co. Ltd
T4 sequence (P05067 672-713 limits assumed): as above
Procedure: The preparation was the same as that shown in Examples 1 and 2, except that the Aβ42 protein was first incubated at 37° C. for 48 hours, then the drug effect was added, the sample was taken at −20 ° C. every 6 hours, after 48 hours, using all of the samples for ThaT and TEAM tests.

Row | Compound | Effect on improving symptoms of AD mice (Morris water maze) [1] | Formation of the β-sheet structure of Aβ monomer (CD) (Aβ protein monomer) | Plaque effect compared with positive control nourishing blood serum brain drug group (APP/PS1 transgenic mice; 10-month-old AD mice) | Number of stained Aβ deposition plaques in cortex or hippocampus (Thioflavin S, Congo red) vs normal saline AD mice (APP/PS1 transgenic mice; 10-month-old AD mice after 2 months intragastric administration) | Incubation period for AD mice to find the platform (Morris water maze) ([1]; 8-month-old APP/PS1 mice) | Number of times AD mice crossed the virtual platform (Morris water maze) ([1]; platform removed) | Aβ protein fiber density, length and width (TEM) (Aβ42 monomer) | ThT fluorescence intensity (Aβ42 monomer aggregation) vs control group without medicine (Aβ42 monomers) | Y maze effect compared with Arishen treatment group [2] | Correct rate in Y maze of AD mice ([2]; saline AD about 58%, WT about 82%) | MTT absorbance value (protection from Aβ42 oligomer-mediated neurocytotoxicity) vs control group without drug ([3]; Aβ 1 uM, drug 0.25, 0.5, 1, 2 uM, 3 hours, 490 nm) | MTT effect compared with positive control curcumin ([3]; when the concentration was low) | ThT fluorescence intensity of pre-formed Aβ fibers vs non-dosing control (formed Aβ fibers; Aβ42 pre-incubated 37° C. 48 hours, then drug, sampled every 6 hours to 48 hours) | Depolymerization of formed Aβ fibers (TEM) (formed Aβ fibers; after 48 hours of treatment)
1 | COc1cc2c(cc1OC)C(=O)C(CC1CCN(Cc3ccccc3)CC1)C2 (stereo not drawn) [Arishen, donepezil hydrochloride, reference compound] | limited effect | had no effect |  |  |  |  |  |  |  |  |  |  |  | 
2 | Cc1cc(O)c2c(c1)C(=O)c1cc(O)cc(O)c1C2=O [emodin, 1,3,8-trihydroxy-6-methylanthracene-9, 10-dione] |  | significantly reduce | slightly better | statistically significant reduction | significantly reduced | significantly improved | decreased significantly | significantly decreased | better than the Arishen treatment group | increased significantly | increased significantly | stronger than that of the positive control curcumin | remained basically unchanged | could not depolymerize
